1 compound from ChEMBL document CHEMBL4325844, “Development of 2-amino-4-phenylthiazole analogues to disrupt myeloid differentiation factor 88 and prevent inflammatory responses in acute lung injury” (Eur J Med Chem, 2019) can be followed below.

In experiment [1] the test system is Peritoneal macrophage. The experiment can be described thus: Antiinflammatory activity in ICR mouse primary peritoneal macrophages assessed as inhibition of LPS-induced TNFalpha production at 20 uM preincubated for 60 mins followed by LPS stimulation and measured after 24 hrs by ELISA relative to control. In kind it is functional. On the technique in general: An ELISA detects its analyte on a solid surface through an enzyme-linked reagent.

Experiment [2] relates to Peritoneal macrophage. The experiment can be described thus: Antiinflammatory activity in ICR mouse primary peritoneal macrophages assessed as inhibition of LPS-induced TNFalpha production preincubated for 2 hrs followed by LPS stimulation and measured after 22 hrs by ELISA. In kind it is functional, cell-based.
Experiment [3] has as its system Peritoneal macrophage. The experiment can be described thus: Potency index, ratio of TJ-M2010-5 IC50 to test compound IC50 for inhibition of LPS-induced TNFalpha production in ICR mouse primary peritoneal macrophages. In kind it is functional.
Experiment [4] addresses Toll-like receptor 4/MD-2 (Homo sapiens) (UniProt O00206+Q9Y6Y9). The experiment can be described thus: Inhibition of LPS-induced HA/FLAG-tagged TLR4 (unknown origin) interaction with MD2 (unknown origin) expressed in HEK293 cells at 20 uM after 48 hrs by co-immunoprecipitation method. In kind it is cell-based.
Experiment [5] concerns the target Toll-like receptor 4 (Homo sapiens) (UniProt O00206). The experiment can be described thus: Binding affinity to recombinant human 10His-tagged TLR4 (24 to 631 residues) by SPR assay. On the technique in general: Surface plasmon resonance follows binding to a sensor surface in real time, without labels.
In experiment [6] the target is Myeloid differentiation primary response protein MyD88 (Mus musculus) (UniProt P22366). The experiment can be described thus: Inhibition of MyD88 in ICR mouse primary peritoneal macrophages assessed as reduction in LPS-induced JNK phosphorylation at 20 uM preincubated for 30 mins followed by LPS-stimulation and measured after 20 mins by Western blot analysis.
The target is the same in experiment [7]. The experiment can be described thus: Inhibition of MyD88 in mouse RAW264.7 cells expressing EGFP-fused NFkappaB at 10 uM preincubated for 30 mins followed by LPS-stimulation and measured after 1 hr by fluorescence assay. In kind it is cell-based.
In experiment [8] the test system is Mus musculus. The experiment can be described thus: Antiinflammatory activity in LPS-induced C57/BL6 mouse model of acute lung injury assessed as reduction in TNFalpha level in BALF at 10 mg/kg, ip pretreated for 30 mins followed by LPS challenge measured after 6 hrs by ELISA. In kind it is functional, organism-based.
For experiment [9], the system named is Mus musculus. The experiment can be described thus: Antiinflammatory activity in LPS-induced C57/BL6 mouse model of acute lung injury assessed as reduction in TNFalpha level in serum at 10 mg/kg, ip pretreated for 30 mins followed by LPS challenge measured after 6 hrs by ELISA. In kind it is functional, organism-based.
The subject of experiment [10] is Mus musculus. The experiment can be described thus: Antiinflammatory activity in LPS-induced C57/BL6 mouse model of acute lung injury assessed as reduction in pulmonary congestion at 10 mg/kg, ip pretreated for 30 mins followed by LPS challenge measured after 6 hrs by hematoxylin and eosin staining based microscopic analysis. In kind it is functional, organism-based.

A word on the inhibition: it is the share of the control response that was lost under treatment. As a reminder, the IC50 is the concentration at which inhibition is half-maximal.

Active and inactive are the calls of the source. The calls are words filed in the database; no cut-off is given here.

Chain of Myeloid differentiation primary response protein MyD88 (Mus musculus) (P22366 whole entry, the tested form may be a part): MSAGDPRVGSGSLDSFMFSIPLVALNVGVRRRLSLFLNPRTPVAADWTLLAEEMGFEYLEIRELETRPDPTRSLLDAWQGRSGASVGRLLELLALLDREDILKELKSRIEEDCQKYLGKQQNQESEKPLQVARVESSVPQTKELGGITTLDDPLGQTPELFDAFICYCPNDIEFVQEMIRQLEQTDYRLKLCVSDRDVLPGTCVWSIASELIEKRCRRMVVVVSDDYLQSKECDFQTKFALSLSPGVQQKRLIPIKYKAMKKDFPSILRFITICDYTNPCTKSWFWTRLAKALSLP
Chain of Toll-like receptor 4 (Homo sapiens) (O00206 whole entry, the tested form may be a part): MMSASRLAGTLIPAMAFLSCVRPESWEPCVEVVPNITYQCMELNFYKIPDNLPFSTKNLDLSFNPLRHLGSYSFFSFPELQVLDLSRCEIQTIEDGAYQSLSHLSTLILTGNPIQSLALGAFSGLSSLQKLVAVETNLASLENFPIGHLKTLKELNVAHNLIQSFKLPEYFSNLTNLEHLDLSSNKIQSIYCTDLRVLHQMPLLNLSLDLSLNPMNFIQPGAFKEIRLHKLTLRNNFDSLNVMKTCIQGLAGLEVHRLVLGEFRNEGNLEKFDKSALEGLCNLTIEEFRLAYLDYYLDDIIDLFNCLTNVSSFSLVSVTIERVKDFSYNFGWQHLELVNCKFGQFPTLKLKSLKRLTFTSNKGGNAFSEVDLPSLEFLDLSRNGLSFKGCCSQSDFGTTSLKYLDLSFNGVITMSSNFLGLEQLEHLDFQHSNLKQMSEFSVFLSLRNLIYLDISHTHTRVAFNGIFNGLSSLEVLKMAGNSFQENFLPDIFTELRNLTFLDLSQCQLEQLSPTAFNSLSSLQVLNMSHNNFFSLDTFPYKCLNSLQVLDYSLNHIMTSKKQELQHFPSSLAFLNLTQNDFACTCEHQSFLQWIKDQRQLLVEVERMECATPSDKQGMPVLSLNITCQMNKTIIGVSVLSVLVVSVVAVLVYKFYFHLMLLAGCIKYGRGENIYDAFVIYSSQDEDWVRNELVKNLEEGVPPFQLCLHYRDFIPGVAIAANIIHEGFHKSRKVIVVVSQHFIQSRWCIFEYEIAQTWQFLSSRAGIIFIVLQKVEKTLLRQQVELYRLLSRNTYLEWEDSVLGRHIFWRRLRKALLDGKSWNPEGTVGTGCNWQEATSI

On to `COc1cc(-c2csc(NC(=O)CCN3CCN(Cc4cccc([N+](=O)[O-])c4)CC3)n2)ccc1O`, for which the inhibition at 20 µM in experiment [1] came to 90.4%. Moreover, the IC50 in [2] was 0.89 µM. The inhibition entry in experiment [2] is “Dose-dependent effect”. For the same compound, the “Ratio IC50” value in experiment [3] is on record as 13. Also, the inhibition result in [4] is “inactive”. In addition, the result in experiment [5] was inactive. The inhibition result in experiment [6] and in experiment [7] was “Active” each time. The result in [8], in experiment [9] and in experiment [10] was Active.
